Laboratory results as given in patent US20060110385A1, “Means and methods for diagnosing and treating affective disorders” (Affectis Pharmaceuticals AG, priority 2003, published 2006).

Columns and labels:
[1] = molecular target: T1, P2X7R (Rattus norvegicus, UniProt Q64663); settings: concentrations of 10 to 300 μM; cited from earlier work
T1 sequence (Q64663 1-595): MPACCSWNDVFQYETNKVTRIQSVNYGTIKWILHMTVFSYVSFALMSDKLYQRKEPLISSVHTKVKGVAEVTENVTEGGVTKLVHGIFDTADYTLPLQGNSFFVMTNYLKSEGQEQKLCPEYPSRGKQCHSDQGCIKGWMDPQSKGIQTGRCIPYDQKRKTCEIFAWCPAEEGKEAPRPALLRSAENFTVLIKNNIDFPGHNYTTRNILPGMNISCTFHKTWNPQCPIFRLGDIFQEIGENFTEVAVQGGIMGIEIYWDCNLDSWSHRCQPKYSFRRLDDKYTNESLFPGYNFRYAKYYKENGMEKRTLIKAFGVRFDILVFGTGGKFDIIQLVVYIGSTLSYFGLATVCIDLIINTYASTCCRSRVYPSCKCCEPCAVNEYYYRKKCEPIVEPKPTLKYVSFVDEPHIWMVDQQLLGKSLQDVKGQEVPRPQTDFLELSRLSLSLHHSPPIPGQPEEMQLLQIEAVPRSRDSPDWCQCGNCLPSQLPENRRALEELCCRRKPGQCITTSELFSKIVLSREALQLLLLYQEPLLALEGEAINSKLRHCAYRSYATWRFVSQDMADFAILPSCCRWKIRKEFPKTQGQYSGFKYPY

[2] = tested on: DBA/201a mice; test: Porsolt's forced swim test after intrahippocampal P2X7R antagonists; assay type: in vivo, mouse; settings: 100 nM KN-62 or 10 μM oATP, 1 μl each side, dentate gyrus, 24 hours after injection
From the text: In the present example, the P2X7R antagonists were directly injected into the dentate gyrus region of the hippocampus. Briefly, three months old male mice were bilaterally implanted with guide cannulae (23 gauge, length 8 mm) by means of a stereotactic instrument (David Kopf Instruments). The coordinates, in relation to bregma, were −1.5 mm posterior, ±1.0 mm lateral, and −0.8 mm ventral. Mice were allowed to recover for 10 to 13 days after surgery. Following this recovery period, mice were injected with 1 μl vehicle solution (0.01% DMSO, Sigma), or 100 nM KN-62 (Sigma, prepared in 0.01% DMSO), or 10 μM oATP (Sigma, prepared in PBS) in each side of the brain over a period of 60 seconds. All injections were performed using a 9 mm-31 gauge needle inserted into the guide cannulae and connected via tubing to a 10 μl Hamilton syringe.
The behaviour of individual mice was assessed using the Porsolt's forced swim test 24 hours after injection of vehicle solution, KN-62, or oATP. A pre-exposure of 5 minutes to the test was performed 15-17 minutes after administration of vehicle, KN-62, or oATP. A description of the Porsolt's forced swim test is given in example 9. […] Observed results were verified statistically using one-way MANOVA test.

[3] = molecular target: T2, P2X7R (Homo sapiens, UniProt Q99572); test: Calcium entry (Fluo-4 AM) in HT-22 cells overexpressing human P2X7R; assay type: cell-based; design: expressed in transfected cells; settings: 20 μM BzATP or 50 μM tenidap
T2 sequence (Q99572 1-595): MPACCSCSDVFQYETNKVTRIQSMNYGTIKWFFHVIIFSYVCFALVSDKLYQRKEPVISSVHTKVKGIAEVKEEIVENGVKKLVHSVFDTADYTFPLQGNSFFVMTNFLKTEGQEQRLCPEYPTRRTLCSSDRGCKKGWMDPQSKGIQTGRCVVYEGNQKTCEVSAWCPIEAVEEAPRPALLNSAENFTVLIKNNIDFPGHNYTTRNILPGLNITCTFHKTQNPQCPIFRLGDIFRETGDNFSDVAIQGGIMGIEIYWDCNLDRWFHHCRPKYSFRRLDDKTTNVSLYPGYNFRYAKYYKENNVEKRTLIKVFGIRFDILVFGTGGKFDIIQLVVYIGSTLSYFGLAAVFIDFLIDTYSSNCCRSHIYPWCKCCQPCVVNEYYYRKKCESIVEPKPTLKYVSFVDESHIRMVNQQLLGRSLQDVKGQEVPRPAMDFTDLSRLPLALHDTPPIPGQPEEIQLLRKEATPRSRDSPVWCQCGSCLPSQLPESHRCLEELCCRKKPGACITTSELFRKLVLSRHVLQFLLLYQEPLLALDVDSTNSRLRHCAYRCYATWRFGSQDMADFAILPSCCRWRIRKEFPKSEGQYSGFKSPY
From the text: Yet another method for identifying P2X7R agonists was devised by generating a immortalised mouse cell line that overexpresses the human P2X7R gene under the control of the human cytomegalovirus (CMV) early promoter/enhancer region. The human P2X7R cDNA was inserted into the pcDNA3.1 vector (Invitrogen) and transfected into the mouse hippocampal cell line HT-22 using Lipofectamine (Invitrogen) according to the manufacturer's specifications. One day after transfection, culture medium containing 500 μg/ml G418 was added to the cells. Resistant clones were separately isolated and cultured 14 days after applying the selection medium.
The agonistic activity of a compound was evaluated by measuring calcium entry in the cells that overexpress the human P2X7R. Cells were cultured in 96 well plates and incubated at 37° C. with 5% CO2 DMEM with 10% foetal calf serum (Gibco) until they reached confluence. Cells were then loaded for one hour with 10 μM of Fluo-4 AM (Molecular Probes). Fluo-4 AM is a fluorescent dye that binds to intracellular calcium. […] Agonist activity was detected by measuring an increase in calcium influx which results in increased binding to Fluo-4 AM and increased fluorescence. Changes in fluorescence signal are measured using a Fluostar Optima plate reader (BMG biotech). […] Thus, both compound stimulated the activity of P2X7R which results in an influx of ions into the cells.

[4] = tested on: mice; test: Porsolt's forced swim test after long-term paroxetine; assay type: in vivo, mouse; settings: paroxetine 10 mg/kg twice per day by gavage, 28 days, male mice
Procedure: Further validation of role of P2X7R in affective disorders was performed by examining its expression pattern in response to stress and treatment with antidepressant drugs. […] In parallel, a control group of mice was given vehicle solution (i.e. without paroxetine) using the same treatment regiment while a second control group of mice was left undisturbed and stress-free (i.e. untreated) during the same period of the experiments. At the end of the long-term treatment, part of the mice of each experimental group were tested in the dark/light box (test of anxiety behaviour) and in the Porsolt's forced swim test (test of depressive-like behaviour) to confirm the effectiveness of the treatment (FIG. 5). […] The other part of the experimental groups (i.e. mice without test experience) were decapitated, brains rapidly removed and frozen at −80° C. until usage.

[5] = tested on: P2X7R; test: P2X7R protein expression by immunohistochemistry after siRNA injection; assay type: in vivo, mouse
From the text: At the end of the experiment, the mice were sacrificed and the brains were examined to confirm the location and efficiency of the siRNA injections. For this purpose the brains were cut into sections and the slides were stained by immunohistochemistry using the above mentioned protocols. Brains from mice injected with the specific double stranded siRNA, with control double stranded RNA and with vehicle were examined in parallel. Under these conditions, the specific siRNA directed against P2X7R injected near the dentate gyrus induced on average an 80% inhibition of P2X7R protein expression as compared to the samples from mice injected with vehicle or with control double stranded RNA. […] This inhibition produced behavioural changes indicating a causative role for P2X7R in affective disorders.

[6] = tested on: mice; test: Porsolt's forced swim test after intrahippocampal siRNA; assay type: in vivo, mouse; settings: 0.1 nmol/μl, 1 μl per side, dentate gyrus, 24 hours and 48 hours after infusion
From the text: According to the observed expression pattern of P2X7R in the hippocampus (FIGS. 9, 10, and 11) and the known involvement of the hippocampus in depression, the dentate gyrus (hippocampus) was selected as target region for siRNA application. Male, naive mice were bilaterally implanted with a guide cannulae (23 gauge, length 8 mm) by means of a stereotactic instrument. The coordinates, in relation to bregma, were −2.0 mm posterior, ±1.0 mm lateral, and −1.0 mm ventral. Following a recovery period of 5 days, the mice were divided into three experimental groups: vehicle (veh), control double stranded RNA (control), and P2X7R specific double stranded siRNA (siRNA). Sequences used for P2X7R siRNA are 5′-[…]-3′ and 5′-[…]-3′. Both sequences and were annealed and injected together as a double stranded RNA. On day 6 after surgery, mice were slightly anaesthetized with Isofluran and injections of siRNA were carried out. […]
The effects of P2X7R inhibition on depressive-like behaviour was assessed 24 hours and 48 hours after infusion of siRNA, control or vehicle according to the standard test paradigm, the Porsolt's forced swim test (Porsolt et al., Arch. Int. Pharmacodym. 229 (1977), 327-336; Porsolt, Rev. Neurosci. 11 (2000), 53-58). […] Compared to vehicle application, no influence of control double stranded RNA (5′-[…]-3′) on floating behaviour (passive stress coping) was detected. […]

[7] = molecular target: T2, P2X7R; settings: dose response curve, Y-axis ion current; cited from earlier work
[8] = tested on: P2X7R; settings: cited from earlier work

## CC(C)NC[C@@H](O)COc1cccc2ccccc12 [D-propanolol]
[1]
  opening of the cation channel activity of P2X7R: without affecting the opening of the cation channel activity of P2X7R
  pore-forming activity of P2X7R: inhibit the pore-forming activity of P2X7R

## CN([C@@H](Cc1ccc(OS(=O)(=O)c2cccc3cnccc23)cc1)C(=O)N1CCN(c2ccccc2)CC1)S(=O)(=O)c1cccc2cnccc12 [KN-62, 1-(N,O-bis[5-isoquinolinesulphonyl]-N-methyl-L-tyrosyl)-4-phenylpiperazine]
[2]
  active escape attempts (time, frequency, latency of struggling): no changes
  passive behaviour (time, frequency, latency of floating): no changes

## NC(=O)N1C(=O)/C(=C(\O)c2cccs2)c2cc(Cl)ccc21 [tenidap, 5-chloro-2,3-dihydro-2-oxo-3-(2-thienylcarbonyl)-indole-1-carboxamide]
[3]
  fluorescence intensity (calcium influx, Fluo-4 AM): rapid increase in fluorescence intensity

## CC(CCc1ccccc1)NCC(O)c1ccc(O)c(C(N)=O)c1 (stereo not shown) [labetolol]
[1]
  opening of the cation channel activity of P2X7R: without affecting the opening of the cation channel activity of P2X7R
  pore-forming activity of P2X7R: inhibit the pore-forming activity of P2X7R

## Fc1ccc([C@@H]2CCNC[C@H]2COc2ccc3c(c2)OCO3)cc1 [paroxetine]
[4]
  passive stress coping behaviour (floating) in the forced swim test: decreased

## CC(C)NCC(O)COc1cccc2ccccc12 (racemic) [DL-propanolol]
[1]
  opening of the cation channel activity of P2X7R: without affecting the opening of the cation channel activity of P2X7R
  pore-forming activity of P2X7R: inhibit the pore-forming activity of P2X7R

## P2X7R specific siRNA: double stranded siRNA, 5′-GUGGGUCUUGCACAUGAUCTT-3′ annealed with 5′-GAUCAUGUGCAAGACCCACTT-3′ (chemistry not given here)
[5]; injected near the dentate gyrus, compared to vehicle or control double stranded RNA
  inhibition of P2X7R protein expression: 80%
[5]; intrahippocampal injection
  local inflammation or infiltration at the hippocampus: did not produce any sign of local inflammation or infiltration
[6]
  passive (floating) behaviour in the forced swim test: significant increase in passive behaviour
[6]; listed as siRNA targeting P2X7R
  passive (floating) behaviour in the forced swim test: increased

## Nc1ncnc2c1ncn2[C@@H]1O[C@H](COP(=O)(O)OP(=O)(O)OP(=O)(O)O)[C@@H](O)[C@H]1O [ATP]
[7]
  EC50: 300 µM
[8]
  levels of ATP required to achieve activation: > 1 mM
